Laboratory results from ChEMBL document CHEMBL1146010, “Synthesis and in vitro antimycobacterial activity of N1-nicotinoyl-3-(4'-hydroxy-3'-methyl phenyl)-5-[(sub)phenyl]-2-pyrazolines” (2006).
In brackets after ≈: the same amount, converted by molar mass.

System: Mycobacterium tuberculosis
Assay: Antimycobacterial activity against isoniazid-resistant Mycobacterium tuberculosis by agar dilution method
Type: functional

Work on `COc1ccc(C2CC(c3ccc(O)c(C)c3)=NN2C(=O)c2ccncc2)cc1OC` (configuration not stated) yielded an MIC of 0.93 µM (≈ 0.388 µg/mL).

In the case of `NNC(=O)c1ccncc1` [ISONIAZID], the MIC was 11.4 µM (≈ 1.56 µg/mL).

For `Cc1cc(C2=NN(C(=O)c3ccncc3)C(c3ccc(N(C)C)cc3)C2)ccc1O` (configuration not stated), the MIC was 1.95 µM (≈ 0.781 µg/mL).

`Cc1cc(C2=NN(C(=O)c3ccncc3)C(c3ccc(Cl)cc3)C2)ccc1O` (configuration not stated) showed an MIC of 3.98 µM (≈ 1.56 µg/mL).

With `COc1ccc(C2CC(c3ccc(O)c(C)c3)=NN2C(=O)c2ccncc2)c(OC)c1OC` (configuration not stated) the MIC was 0.87 µM (≈ 0.389 µg/mL).

For `Cc1cc(C2=NN(C(=O)c3ccncc3)C(c3ccco3)C2)ccc1O` (configuration not stated), the MIC was 0.58 µM (≈ 0.201 µg/mL).

`COc1ccc(C2CC(c3ccc(O)c(C)c3)=NN2C(=O)c2ccncc2)cc1` (configuration not stated) showed an MIC of 8.05 µM (≈ 3.12 µg/mL).

`Cc1cc(C2=NN(C(=O)c3ccncc3)C(c3ccccc3)C2)ccc1O` (configuration not stated) showed an MIC of 4.36 µM (≈ 1.56 µg/mL).

For `Cc1cc(C2=NN(C(=O)c3ccncc3)C(c3c(Cl)cccc3Cl)C2)ccc1O` (configuration not stated), the MIC was 0.23 µM (≈ 0.098 µg/mL).

Molecule `Cc1cc(C2=NN(C(=O)c3ccncc3)C(c3ccccc3Cl)C2)ccc1O` (configuration not stated) has an MIC of 0.26 µM (≈ 0.102 µg/mL).

`Cc1cc(C2=NN(C(=O)c3ccncc3)C(c3cccc([N+](=O)[O-])c3)C2)ccc1O` (configuration not stated) gave an MIC of 7.75 µM (≈ 3.12 µg/mL).

Work on `Cc1cc(C2=NN(C(=O)c3ccncc3)C(c3ccc(F)cc3)C2)ccc1O` (configuration not stated) yielded an MIC of 0.54 µM (≈ 0.203 µg/mL).
